System: 349418-098-R-PDC complex spheroid viability
Assay: Anticancer human tumor 349418-098-R-PDC patient-derived lung adenocarcinoma cell line growth inhibition
Settings: for IC50: curve of first compound; for viability, T/C: stronger effect = lower value
Text: Multicellular complex tumor spheroid response to LSD1 Inhibitor Iadademstat in combination with a variety of drugs and investigational agents in selected tumor cell lines
The current study was undertaken to assess response to LSD1 inhibitors in combination with standard-of-care drugs and investigational agents in solid tumor complex spheroid models as well as in the K-562 leukemia. Complex spheroids include a stromal component modeled by human endothelial cells (HUVEC) and fibroblasts modeled by human mesenchymal stem cells (MSCs). The concentration ranges selected for each drug and investigational agent were based upon clinically achievable concentrations if the clinical Cmax of the agent was known.
Compounds. The drugs and investigational agents used in this study are listed on Table 1. All of the agents used, including staurosporine (NSC755774) and gemcitabine (NSC613327), were obtained from the Developmental Therapeutics Program, NCI. FDA-approved anticancer drugs are available from the NCI at http://dtp.nci.nih.gov/branches/dscb/oncology_drugset_explanation.html. Drugs and investigational agents were >95% pure by proton nuclear magnetic resonance (NMR) and liquid chromatography/mass spectrometry (LC/MS). Stock solutions were prepared at 400x in DMSO, stored at -70 degrees C, and diluted in fresh medium prior to their use. The final concentration of DMSO in cell culture wells never exceeded 0.25% (v/v). The FDA-approved anticancer drug set is available from the Developmental Therapeutics Program at https://dtp.cancer.gov/organization/dscb/obtaining/available_plates.htm. All drugs and investigational agents were tested over a range starting from a high concentration at or near the clinical Cmax and decreasing in half-log increments. If the clinical Cmax for an agent had not been determined, the highest concentration tested was 10 microM.
Cell Lines. The patient-derived cancer cell (PDC) lines: 292921-168-R-J2-PDC, K24384-001-R-PDC, and 521955-158-R2-J5-PDC pancreatic carcinomas, 556581-035-R-J1 ovarian carcinoma, 324938-238-R-J1-PDC, 855422-203-R-J1-PDC and 883617-216-R-J1-PDC urothelial bladder carcinomas, 743489-274-T-PDC renal cell carcinoma, 138582-R-J1 Merkel cell tumor, K60290-347-R-J1 and K57222-313-R-J1-PDC glioblastomas, 653999-131-R-J2-PDC, LG0703-F948-PDC, and 349418-098-R-PDC non-small cell lung carcinomas, 885512-296-R-J2-PDC, 171881-019-R-J1-PDC breast carcinomas and 186277-243-T-J2-PDC and 233499-124-R-J2-PDC colon carcinomas were obtained from the NCI Patient-Derived Models Repository (PDMR, https://pdmr.cancer.gov). The established cell lines NCI/ADR-RES (RRID:CVCL_14520 and OVCAR-5 (RRID:CVCL_1628) ovarian carcinomas, 786-O (RRID:CVCL_1051) and A498 (RRID:CVCL_A498) renal cell carcinoma, NCI-H211 (ATCC, cat. CRL-5824; RRID:CVCL_1529), NCI-H196 (ATCC, cat. CRL-5823, RRID:CVCL_1509), SW 1271 (ATCC, cat. CRL-2177, RRID:CVCL_1716) and NCI-H1876 (ATCC, cat. CRL-5902, RRID:CVCL_1503) small cell lung carcinomas, MDA-MB-231 (RRID:CVCL_0062) and MDA-MB-468 (RRID:CVCL_0419)breast carcinomas (10-12). Pooled donor human umbilical vein endothelial cells (HUVEC, Lonza, cat. CC-2519) and human mesenchymal stem cells (hMSC, Lonza, cat. PT-2501) were purchased from Lonza (Walkersville, MD).
Cell Culture. All cells were maintained in an incubator at 37 degrees C and 5% CO2 with 95% humidity. The PDC lines were cultured according to standard operating procedures established by the NCI PDMR (https://pdmr.cancer.gov). Briefly all PDCs were thawed and cultured in Matrigel-coated flasks prepared with a working solution of 1X Ham's F-12 nutrient mix, without supplementation (Invitrogen, Waltham, MA, cat. 11765054), 100 U/mL penicillin-streptomycin (Invitrogen, cat. 15140122), and 2.5% Matrigel (Corning Inc., Corning, NY, cat. 354248) for the first three passages. […]
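Further: spheroids exposed to agents for seven days before readout.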
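Wherever viability, T/C is given: 100% = DMSO vehicle control wells.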

For Nc1ncn(C2CC(O)C(CO)O2)c(=O)n1 (stereo not given) + NC1CC1c1ccc(-c2cccc(O)c2)cc1, which IC50 (second compound 0.1 µM) is on record?
Its IC50 is 89.4 nM.

And the IC50 (second compound 0.316 µM)?
The IC50 was 90.3 nM.

And the IC50 (second compound 1 µM)?
Its IC50 is 88.5 nM.

And the IC50 (second compound 3.16 µM)?
The IC50 was 95.3 nM.

And the IC50 (second compound 10 µM)?
The IC50 was 62.8 nM.

And the viability, T/C (second compound 0.1 µM, first compound 0.00316 µM)?
The viability, T/C was 102%.

And the viability, T/C (second compound 0.1 µM, first compound 0.01 µM)?
Its viability, T/C is 99.1%.

What about the viability, T/C (second compound 0.1 µM, first compound 0.0316 µM) of the same compound?
Its viability, T/C is 78.3%.

What about the viability, T/C (second compound 0.1 µM, first compound 0.1 µM) of the same compound?
Its viability, T/C is 45.8%.

And the viability, T/C (second compound 0.1 µM, first compound 0.316 µM)?
Its viability, T/C is 37.3%.

And the viability, T/C (second compound 0.1 µM, first compound 1 µM)?
Its viability, T/C is 28.2%.

What about the viability, T/C (second compound 0.316 µM, first compound 0.00316 µM) of the same compound?
Its viability, T/C is 113%.

What about the viability, T/C (second compound 0.316 µM, first compound 0.01 µM) of the same compound?
Its viability, T/C is 95%.

What about the viability, T/C (second compound 0.316 µM, first compound 0.0316 µM) of the same compound?
The viability, T/C was 88.4%.

And the viability, T/C (second compound 0.316 µM, first compound 0.1 µM)?
The viability, T/C was 44.2%.

And the viability, T/C (second compound 0.316 µM, first compound 0.316 µM)?
Its viability, T/C is 32.9%.

What about the viability, T/C (second compound 0.316 µM, first compound 1 µM) of the same compound?
Its viability, T/C is 27.9%.

What about the viability, T/C (second compound 1 µM, first compound 0.00316 µM) of the same compound?
The viability, T/C was 105%.

And the viability, T/C (second compound 1 µM, first compound 0.01 µM)?
Its viability, T/C is 105%.

What about the viability, T/C (second compound 1 µM, first compound 0.0316 µM) of the same compound?
Its viability, T/C is 83.4%.

What about the viability, T/C (second compound 1 µM, first compound 0.1 µM) of the same compound?
Its viability, T/C is 45.8%.

What about the viability, T/C (second compound 1 µM, first compound 0.316 µM) of the same compound?
The viability, T/C was 32.5%.

What about the viability, T/C (second compound 1 µM, first compound 1 µM) of the same compound?
Its viability, T/C is 27.1%.

And the viability, T/C (second compound 3.16 µM, first compound 0.00316 µM)?
The viability, T/C was 111%.

And the viability, T/C (second compound 3.16 µM, first compound 0.01 µM)?
The viability, T/C was 108%.

And the viability, T/C (second compound 3.16 µM, first compound 0.0316 µM)?
The viability, T/C was 85.5%.

And the viability, T/C (second compound 3.16 µM, first compound 0.1 µM)?
The viability, T/C was 48.4%.

What about the viability, T/C (second compound 3.16 µM, first compound 0.316 µM) of the same compound?
The viability, T/C was 30.6%.

And the viability, T/C (second compound 3.16 µM, first compound 1 µM)?
The viability, T/C was 25.1%.

What about the viability, T/C (second compound 10 µM, first compound 0.00316 µM) of the same compound?
Its viability, T/C is 92.4%.

And the viability, T/C (second compound 10 µM, first compound 0.01 µM)?
Its viability, T/C is 78.3%.

And the viability, T/C (second compound 10 µM, first compound 0.0316 µM)?
Its viability, T/C is 67.8%.

And the viability, T/C (second compound 10 µM, first compound 0.1 µM)?
The viability, T/C was 38.3%.

And the viability, T/C (second compound 10 µM, first compound 0.316 µM)?
The viability, T/C was 28%.

What about the viability, T/C (second compound 10 µM, first compound 1 µM) of the same compound?
The viability, T/C was 26.7%.

What does the source list for COc1cc(C2c3cc4c(cc3C(OC3OC5COC(C)OC5C(O)C3O)C3COC(=O)C23)OCO4)cc(OC)c1O (stereo not given) + NC1CC1c1ccc(-c2cccc(O)c2)cc1?
IC50 (second compound 0.1 µM): 61.1 nM; IC50 (second compound 0.316 µM): 62.7 nM; IC50 (second compound 1 µM): 67.3 nM; IC50 (second compound 3.16 µM): 57.1 nM; IC50 (second compound 10 µM): 35 nM; viability, T/C (second compound 0.1 µM, first compound 0.00949 µM): 108%; viability, T/C (second compound 0.1 µM, first compound 0.03 µM): 86.4%; viability, T/C (second compound 0.1 µM, first compound 0.0949 µM): 27.3%; viability, T/C (second compound 0.1 µM, first compound 0.3 µM): 7.24%; viability, T/C (second compound 0.1 µM, first compound 0.949 µM): 3.83%; viability, T/C (second compound 0.1 µM, first compound 3 µM): 3.5%; viability, T/C (second compound 0.316 µM, first compound 0.00949 µM): 114%; viability, T/C (second compound 0.316 µM, first compound 0.03 µM): 89.4%; viability, T/C (second compound 0.316 µM, first compound 0.0949 µM): 27.7%; viability, T/C (second compound 0.316 µM, first compound 0.3 µM): 7.71%; viability, T/C (second compound 0.316 µM, first compound 0.949 µM): 3.95%; viability, T/C (second compound 0.316 µM, first compound 3 µM): 2.97%; viability, T/C (second compound 1 µM, first compound 0.00949 µM): 97.6%; viability, T/C (second compound 1 µM, first compound 0.03 µM): 92.7%; viability, T/C (second compound 1 µM, first compound 0.0949 µM): 31.8%; viability, T/C (second compound 1 µM, first compound 0.3 µM): 6.96%; viability, T/C (second compound 1 µM, first compound 0.949 µM): 3.37%; viability, T/C (second compound 1 µM, first compound 3 µM): 2.89%; viability, T/C (second compound 3.16 µM, first compound 0.00949 µM): 114%; viability, T/C (second compound 3.16 µM, first compound 0.03 µM): 83.5%; viability, T/C (second compound 3.16 µM, first compound 0.0949 µM): 23.5%; viability, T/C (second compound 3.16 µM, first compound 0.3 µM): 7.14%; viability, T/C (second compound 3.16 µM, first compound 0.949 µM): 3.98%; viability, T/C (second compound 3.16 µM, first compound 3 µM): 3.63%; viability, T/C (second compound 10 µM, first compound 0.00949 µM): 95.6%; viability, T/C (second compound 10 µM, first compound 0.03 µM): 55.4%; viability, T/C (second compound 10 µM, first compound 0.0949 µM): 14.7%; viability, T/C (second compound 10 µM, first compound 0.3 µM): 5.55%; viability, T/C (second compound 10 µM, first compound 0.949 µM): 3.81%; viability, T/C (second compound 10 µM, first compound 3 µM): 3.47%

Reference: PubChem BioAssay AID1918936 (Molecular Pharmacology Branch, DTP, NCI, 2023)
